The conditions of data set [1]: cited from earlier work.
Data set [2] is described as follows: Blood level AUC after oral capsule of β-lactam antibiotic with adjuvant in dogs. The following applies: 300 mg/kg, dog, per os capsule, control, no absorption promotor, carbenicillin by bioassay, read-out: (AUC)° area below the blood level curve. Type of data set: in vivo, dog (Beagles).
Procedure: Animal: Beagles (body weight 9.9-12.0 kg), 2 animals per test
Drug: β-Lactam antibiotics
Adjuvant: Hydroxylated aromatic carboxylic acids
Dose: β-Lactam antibiotic/adjuvant=300 mg/300 mg/kg
Form of inoculum: Capsule
Route of administration: Per os
Blood sampling: Vein (upper arm)
Object of assay: Blood level
Quantitation: Carbenicillin was determined by bioassay.
For data set [3] the following is noted: gastric acid; prior art; cited from earlier work.
Data set [4] is described as follows: in vivo. The following applies: mouse, urine, po, control without sodium salicylate, cefmetazole 50 mg/kg, gavage, mice, ± standard deviation, 8 mice, read-out: Percent of Dose In Urine.
Procedure: The sodium salt of cefmetazole (50 mg/kg) and sodium salicylate (200 mg/kg) dissolved in water were given to mice by gavage. As a control, mice were given an equal dose of the sodium salt of cefmetazole in water without the added sodium salicylate. The mice were place in individual metabolism cages and their urines collected after 24 hours.
The urine samples were acidified to pH 2.0 with 1N phosphoric acid. Acidified samples were applied to 100-200 mesh XAD.2 columns (1.5 ml), and the column washed with H2 O. Cefmetazole was eluted with 2 ml methanol and measured by high pressure liquid chromatography which was carried out using an Altex liquid chromatograph equipped with a dual wavelength recorder (254 nm and 280 nm). The column was a LiChrosorb 10 RP-18 (length=25 cm., internal diameter--4.6 mm) obtained from Chrompack, Whittier, CA. All assays were done at ambient temperatures. A 3 cm guard column of RP-18 column material (Rheodyne, Inc., Berkeley, CA) was also used. […] Concentrations of cefmetazole were determined by measuring peak height at 254 nm and evaluating on the basis of standard curves run under identical conditions.

Read-outs that look alike come from different tables or passages of the source.

We go through 23 compounds from patent publication US4470980A, “Method of increasing oral absorption of β-lactam antibiotics” (priority 1981, dated 1984).

For the compound `CC(=O)OCC1=C(C(=O)O)N2C(=O)[C@@H](NC(=O)CSc3ccncc3)[C@H]2SC1` [cephapirin], the oral activity entry in data set [1] (oral, prior art) is “poor oral activity”.

On to `CCN1CCN(C(=O)N[C@@H](C(=O)N[C@@H]2C(=O)N3C(C(=O)O)=C(CSc4nnnn4C)CS[C@H]23)c2ccc(O)cc2)C(=O)C1=O` [Example T-1551], for which the oral activity result in data set [1] (oral, prior art) is on record as “poor oral activity”.

For `CC1=C(C(=O)O)N2C(=O)[C@@H](NC(=O)[C@H](N)C3=CCC=CC3)[C@H]2SC1` [cephradine], the absorbed result in data set [1] (in vivo, po) is “greater than 80%”.

For `CC(=O)OCC1=C(C(=O)O)N2C(=O)[C@@H](NC(=O)[C@H](N)c3ccccc3)[C@H]2SC1` [cephaloglycin], the absorbed result in data set [1] (oral, prior art) is “greater than 80%”.

On to `CC(=O)OCC1=C(C(=O)O)N2C(=O)[C@@H](NC(=O)Cc3cccs3)[C@H]2SC1` [cephalothin], for which the oral activity entry in data set [1] (in vivo, po) is on record as “poor oral activity”.

`O=C(Cc1cccs1)N[C@@H]1C(=O)N2C(C(=O)[O-])=C(C[n+]3ccccc3)CS[C@H]12` [cephaloridine]: in data set [1] (oral, prior art), the oral activity entry was “poor oral activity”.

Turning to `N[C@@H](C(=O)N[C@@H]1C(=O)N2C(C(=O)O)=C(Cl)CS[C@H]12)c1ccccc1` [cefaclor], the absorbed entry in data set [1] (oral, prior art) is reported as “greater than 80%”.

On to `CC1(C)S[C@@H]2[C@H](NC(=O)C(C(=O)Oc3ccccc3)c3ccccc3)C(=O)N2[C@H]1C(=O)O` (stereo partly drawn) [carfecillin], for which, in data set [1] (in vivo, po), the absorbed is recorded as 40% and the blood levels result is recorded as “low blood levels of carbenicillin”.

`CO[C@@]1(NC(=O)Cc2cccs2)C(=O)N2C(C(=O)O)=C(COC(N)=O)CS[C@@H]21` [cefoxitin, (6R-cis)-3-[[(amino-carbonyl)oxy]methyl]-7-methoxy-8-oxo7[(2-thienylacetyl)-amino]-5-thia-1-azabicyclo [4.2.0]oct-2-ene-2-carboxylic acid]: in data set [1] (in vivo, po), the oral activity result is on record as “poor oral activity”.

In the case of `CC(=O)OCC1=C(C(=O)O)N2C(=O)[C@@H](NC(=O)CCC[C@@H](N)C(=O)O)[C@H]2SC1` [cephalosporin C], the oral activity result in data set [1] (oral, prior art) was “lack of oral activity”.

On to `CC1(C)S[C@@H]2[C@H](NC(=O)C(C(=O)O)c3ccccc3)C(=O)N2[C@H]1C(=O)O` (stereo partly drawn) [Carbenicillin], for which, in data set [2], the AUC was determined as 5200 ng·h/mL.

`CC1(C)S[C@@H]2[C@H](NC(=O)[C@H](C(=O)O)c3ccsc3)C(=O)N2[C@H]1C(=O)O` [ticarcillin]: the oral activity entry in data set [1] (oral, prior art) is listed as “cannot be administered by the oral route”.

Consider `Cc1nnc(SCC2=C(C(=O)O)N3C(=O)[C@@H](NC(=O)[C@H](N)c4ccc(O)cc4)[C@H]3SC2)s1` [cefaporole], for which the oral activity result in data set [1] (oral, prior art) is “poor oral activity”.

For `Cc1nnc(SCC2=C(C(=O)O)N3C(=O)[C@@H](NC(=O)Cn4cnnn4)[C@H]3SC2)s1` [cefaxolin], the oral activity result in data set [1] (oral, prior art) was “poor oral activity”.

On to `CO[C@@]1(NC(=O)C(C(=O)O)c2ccc(O)cc2)C(=O)N2C(C(=O)O)=C(CSc3nnnn3C)CO[C@@H]21` (stereo partly drawn) [Example S-6059], for which, in data set [1] (in vivo, po), the oral activity entry is “poor oral activity”.

In the case of `CO/N=C(\C(=O)N[C@@H]1C(=O)N2C(C(=O)O)=C(COC(N)=O)CS[C@H]12)c1ccco1` [cefuroxime], the oral activity entry in data set [1] (in vivo, po) is recorded as “poor oral activity”.

As for `CC1=C(C(=O)O)N2C(=O)[C@@H](NC(=O)[C@H](N)c3ccc(O)cc3)[C@H]2SC1` [cefdioxil], the absorbed result in data set [1] (in vivo, po) was “greater than 80%”.

`CC1(C)S[C@@H]2[C@H](NC(=O)COc3ccccc3)C(=O)N2[C@H]1C(=O)O` [penicillin V]: in data set [3], the acid stability result was “more acid stable”. Further, in data set [1] (oral, prior art), the blood levels entry is on record as “higher blood levels of the active therapeutic agent”.

On to `CC1(C)S[C@@H]2[C@H](NC(=O)[C@H](N)c3ccccc3)C(=O)N2[C@H]1C(=O)O` [ampicillin], for which the oral activity entry in data set [1] (oral, prior art) was “poor oral activity”.

On to `CC1(C)S[C@@H]2[C@H](NC(=O)C(C(=O)Oc3ccc4c(c3)CCC4)c3ccccc3)C(=O)N2[C@H]1C(=O)O` (stereo partly drawn) [carindacillin], for which, in data set [1] (in vivo, po), the absorbed is 40% and the blood levels result is “low blood levels of carbenicillin”.

As for `CC(=O)OCC1=C(C(=O)O)N2C(=O)[C@@H](NC(=O)CC#N)[C@H]2SC1` [cephacetrile], the oral activity entry in data set [1] (oral, prior art) is on record as “poor oral activity”.

In the case of `CO[C@@]1(NC(=O)CSCC#N)C(=O)N2C(C(=O)O)=C(CSc3nnnn3C)CS[C@@H]21` [Cefmetazole], the dose excreted at 24 h in data set [4] amounted to 9.1 ± 7.5%. For the same compound, in data set [1] (oral, prior art), the oral activity result is given as “poor oral activity”.

For the compound `CC1(C)S[C@@H]2[C@H](NC(=O)[C@H](N)c3ccc(O)cc3)C(=O)N2[C@H]1C(=O)O` [amoxicillin, 6-[[amino(4-hydroxyphenyl)-acetyl]amino]-3,3-dimethyl-7-oxo-4-thia-1-azabicyclo-[3.2.0]heptane-2-carboxylic acid], the oral activity result in data set [1] (oral, prior art) is listed as “poor oral activity”.

As a reminder, the AUC is the area under the concentration-time curve, a measure of exposure.
